Test results published in publication PMC7269481, “ZN148 Is a Modular Synthetic Metallo-β-Lactamase Inhibitor That Reverses Carbapenem Resistance in Gram-Negative Pathogens In Vivo” (Antimicrobial Agents and Chemotherapy, 2020).
Like-named read-outs stand apart in the source and are kept apart here.

Tests used:
female BALB/c mice = experiment: In vivo tolerance (maximum tolerated dose study); details: weekly i.p. doses 4 to 128 mg/kg
Description: In vivo tolerance of ZN148 was performed by Antineo (Lyon, France). Female BALB/c mice (4 weeks old, approximately 20 g; Charles River, L’Arbresle, France) were acclimatized 4 days in the animal facility before the initiation of experiments. Groups of six mice were either untreated or treated with 200 μl of ZN148 (0.4 to 12.8 g/liter) i.p. once a week. Doses were doubled each week (4 to 128 mg/kg) in the absence of any observed weight loss or modification in behavior. Individual weights were monitored 4 days a week. The relative weights were calculated as ratios between the weight of the day and the weight at the initiation of the experiment. Animals were also followed for macroscopic modifications in behavior. The protocol for experiments in mice was approved by the University of Lyon Animal Ethics Committee (Comité d’Ethique en Expérimentation Animale de l’Université Claude Bernard [Lyon, France], authorization number DR2015-09).

NDM-1 = target: T1, NDM-1 (Klebsiella pneumoniae, UniProt C7C422); experiment: Time-dependent inactivation kinetics of purified NDM-1 (imipenem); format: biochemical
T1 construct: made in house
T1 sequence (C7C422 29-270, looked up): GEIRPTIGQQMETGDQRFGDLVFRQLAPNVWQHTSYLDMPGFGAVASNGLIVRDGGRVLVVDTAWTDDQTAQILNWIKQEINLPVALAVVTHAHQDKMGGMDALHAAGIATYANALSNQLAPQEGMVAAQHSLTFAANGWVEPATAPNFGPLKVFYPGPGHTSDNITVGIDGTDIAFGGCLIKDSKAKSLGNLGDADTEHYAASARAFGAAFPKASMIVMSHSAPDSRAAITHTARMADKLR
Description: Protein expression and purification of NDM-1 and VIM-2 were performed as previously described ([36], [43], [57]). Stock solutions of purified NDM-1 and VIM-2 were prepared in 50 mM HEPES buffer (pH 7.5; Merck). Inhibition of NDM-1 and VIM-2 were determined for ZN148 and the analogues ZN222, ZN223, and ZN228 at different concentrations of inhibitor after preincubation times of 2, 8, 15, 25, and 32 min in 50 mM HEPES buffer (pH 7.5) supplemented with 1 μM ZnSO4 (Sigma-Aldrich) and bovine serum albumin (Sigma-Aldrich; final concentration, 2 μg/ml) at 25°C. Concentrations of 1 nM VIM-2 and 30 nM NDM-1 were used, and the reaction was initiated by the addition of 30 μM nitrocefin (Merck) for VIM-2 or 100 μM imipenem (Sigma-Aldrich) for NDM-1. The reaction was measured at 482 nm (VIM-2) or […] (NDM-1) in either standard 96-well plates (Thermo Fisher Scientific) for VIM-2 or UV-transparent 96-well plates (Corning, Kennebunk, ME) for NDM-1 at 25°C in a SpectraMax Plus plate reader (Molecular Devices). All of the enzyme and substrate concentrations indicated are the final concentrations in the assay. The enzyme activity as a percentage was calculated based on the initial velocity and compared to the control without inhibitor compound. All tests were performed at least in duplicates.
The observed rate constant (kobs) per inhibitor concentration was calculated from the slope of a semilog plot of the enzyme activity in percent versus preincubation time.
By fitting these values, the irreversible kinetic parameters maximum inactivation rate (kinact) and the inhibitor concentration that produces half-maximal rate of inactivation (KI) were obtained. Finally, the inhibitors were characterized by calculating kinact/KI. Where no saturation curve could be observed, KI and kinact were determined from the linear part of plot 1/kobs versus 1/[I].

[1] = tested on: E. coli co-producing MBLs and class A/D serine carbapenemases; experiment: Carbapenem MIC, E. coli co-producing MBLs and class A/D serine carbapenemases; format: cell-based; details: carbapenem alone or with 50µM ZN148
Description: (§1) MICs of carbapenems alone and in combination with inhibitors were determined by broth microdilution according to the Clinical and Laboratory Standards Institute (CLSI) guidelines ([48]) using either premade plates (TREK Diagnostic Systems/Thermo Fisher Scientific, East Grinstead, United Kingdom) with meropenem or in-house-prepared plates with meropenem, imipenem, and doripenem. ZN148 and other inhibitors were tested at a fixed concentration of 50 μM. Cation-adjusted Mueller-Hinton medium (TREK Diagnostic Systems/Thermo Fisher Scientific; Becton Dickinson, Franklin Lakes, NJ) were used as growth medium. The plates were incubated for 20 h at 37°C. ZN148, ZN222, ZN223, ZN228, and TPA were initially tested in combination with meropenem using two indicator strains: NDM-1-producing K. pneumoniae ([49], [50]) and VIM-2-producing P. aeruginosa ([51]). The activity of ZN148 were subsequently tested against two extended strain collections: (i) in combination with meropenem against MBL-producing Enterobacterales (n = 62), MBL-producing P. aeruginosa (n = 9) and MBL- and class D carbapenemase-coproducing Enterobacterales (n = 5) from the strain collection at the Norwegian National Advisory Unit on Detection of Antimicrobial Resistance and (ii) in combination with meropenem, imipenem, and doripenem against globally collected MBL-producing E. coli (n = 87), K. pneumoniae (n = 85), P. aeruginosa (n = 52), and A. baumannii (n = 6), MBL- and class A/D carbapenemase-coproducing E. coli (n = 11), K. pneumoniae (n = 15) and A. baumannii (n = 7) at IHMA Europe, Sàrl, Switzerland. E. coli ATCC 25922 and P. aeruginosa ATCC 27853 were used as quality control strains. The MBL inhibitors were also tested for intrinsic antibacterial activity against the strains.

[2] = tested on: class A carbapenemase (KPC)-producing E. cloacae; experiment: Carbapenem MIC, class A carbapenemase-producing E. cloacae; format: cell-based; details: carbapenem alone or with 50µM ZN148
Description: as §1

E. coli with IMP (n=3) = experiment: Meropenem MIC distribution, E. coli with IMP; format: cell-based; details: MEM alone or +50 µM ZN148
Description: (§2) MICs of carbapenems alone and in combination with inhibitors were determined by broth microdilution according to the Clinical and Laboratory Standards Institute (CLSI) guidelines ([48]) using either premade plates (TREK Diagnostic Systems/Thermo Fisher Scientific, East Grinstead, United Kingdom) with meropenem or in-house-prepared plates with meropenem, imipenem, and doripenem. ZN148 and other inhibitors were tested at a fixed concentration of 50 μM. Cation-adjusted Mueller-Hinton medium (TREK Diagnostic Systems/Thermo Fisher Scientific; Becton Dickinson, Franklin Lakes, NJ) were used as growth medium. The plates were incubated for 20 h at 37°C. ZN148, ZN222, ZN223, ZN228, and TPA were initially tested in combination with meropenem using two indicator strains: NDM-1-producing K. pneumoniae ([49], [50]) and VIM-2-producing P. aeruginosa ([51]). […]

E. coli with NDM (n=102) = experiment: Meropenem MIC distribution, E. coli with NDM; format: cell-based; details: MEM alone or +50 µM ZN148
Description: as §1

[3] = tested on: A. baumannii co-producing MBLs and class A/D serine carbapenemases; experiment: Carbapenem MIC, A. baumannii co-producing NDM-1 and class D carbapenemases; format: cell-based; details: carbapenem alone or with 50µM ZN148, one value per strain
Description: as §1

[4] = tested on: NDM-1-producing K. pneumoniae 50752501; experiment: Meropenem MIC of the in vivo strain; format: cell-based; details: Klebsiella pneumoniae; read-out: MEM MIC
Description: as §2

Question: Which results are given for `CN(C[C@H](O)[C@@H](O)[C@H](O)[C@H](O)CO)C(=O)c1ccc(CN(Cc2ccccn2)Cc2ccccn2)nc1` [ZN148]?
Answer: clinical signs (hair loss or bristly hair, immobility, prostration) test vs control groups (female BALB/c mice): no significant differences; loss of weight compared to initial weight (female BALB/c mice): < 10%; kinact (NDM-1): 0.000983 s⁻¹; kinact/KI (NDM-1): 3.17 M⁻¹ s⁻¹

Question: What does the source list for `C[C@@H](O)[C@H]1C(=O)N2C(C(=O)O)=C(S[C@@H]3CN[C@H](C(=O)N(C)C)C3)[C@H](C)[C@H]12` [meropenem]?
Answer: MIC ([1]; NDM-1 + GES-2 strain): > 64 mg/L; MIC ([1]; NDM-5 + OXA-48 strain): > 64 mg/L; MIC ([1]; NDM-5 + OXA-232 strains, one value per strain): > 64 mg/L; MIC ([2]; Enterobacter cloacae, KPC-2 strains, one value per strain, read-out: MIC): 16 µg/mL; MIC ([2]; Enterobacter cloacae, KPC-3 strain, read-out: MIC): 2 µg/mL; MIC ([2]; KPC-2 strains, one value per strain, listed as MEM): 32 µg/mL; No. of strains with indicated MIC (E. coli with IMP (n=3); MIC 4 mg/L): 1; No. of strains with indicated MIC (E. coli with IMP (n=3); MIC 16 mg/L): 2; No. of strains with indicated MIC (E. coli with NDM (n=102); MIC 1 mg/L): 2; No. of strains with indicated MIC (E. coli with NDM (n=102); MIC 4 mg/L): 6; No. of strains with indicated MIC (E. coli with NDM (n=102); MIC 8 mg/L): 2; No. of strains with indicated MIC (E. coli with NDM (n=102); MIC 16 mg/L): 8; No. of strains with indicated MIC (E. coli with NDM (n=102); MIC 32 mg/L): 19; No. of strains with indicated MIC (E. coli with NDM (n=102); MIC ≥64 mg/L): 65; MIC ([3]; NDM-1 + OXA-23-like strains): > 64 mg/L; MIC ([3]; NDM-1 + OXA-24-like, OXA-58-like strains): > 64 mg/L; MIC [4]: 64 µg/mL
